The results in this text go back to a melting point compilation (Tetko et al.).

In general, melting point refers to the temperature of the solid-liquid transition. Molecule `CN1CCc2ccc(N)cc2C1=O` yielded a melting point of 127 to 129 °C.

`COc1ccc(N2C(=O)C=CC2=O)cn1` showed a melting point of 122 to 124 °C. Molecule `Nc1ccc(Cn2cnc3ccccc32)cc1` showed a melting point of 177 to 179 °C. With `CNC(=O)CC(N)=S`, the melting point fell in the range of 133 to 135 °C. Molecule `CCN(CCC(=O)O)Cc1nc2c(C)cccc2c(=O)[nH]1` gave a melting point of 184 to 186 °C.

In the case of `Cc1n[nH]c(C(=O)O)c1Br`, the melting point was in the range of 271 to 273 °C. On to `O=[N+]([O-])c1ccc(Cl)cc1S(=O)(=O)Cl`, for which the melting point lay in the range of 67 to 69 °C. For `Cc1nnc(S)n1CC(=O)N(C)C`, the melting point fell in the range of 260 to 262 °C. Turning to `COc1ccc2nc(O)c(C(=O)O)cc2c1`, the melting point was in the range of 309 to 311 °C.

`Nc1cccc(C(=O)Nc2ccc(Br)cn2)c1`: the melting point fell in the range of 153 to 155 °C. For `CC(C)n1ncc(C(N)=O)c1N` the value was 194 to 196 °C; for `COc1cc(OCC(=O)O)ccc1[N+](=O)[O-]`, 195 to 197 °C; for `O=[N+]([O-])c1cncc(Br)c1Cl`, 45 to 47 °C. With `Oc1ccc2c(c1)OCC2O` (stereo not drawn), the melting point lay within 104 to 106 °C. For `CC(CO)NC(=O)c1ccc(N)cc1` (stereo not drawn) the value was 174 to 176 °C; for `COCCNS(=O)(=O)c1cc(C(=O)O)ccc1OC`, 183 to 185 °C. `O=C(O)c1ccn(-c2ccccc2)n1` came in with a melting point of 138 to 140 °C. For `Cc1cc(C(=O)NCC(=O)O)c(C)o1`, the melting point lay within 179 to 181 °C. With `CC(=O)c1ccc(SCC(=O)O)cc1F`, the melting point fell in the range of 138 to 140 °C. `CC1(C)C(=O)NCCN1Cc1ccccc1` showed a melting point of 212 to 214 °C. For `NCc1nnc2n1CCCCC2` the value was 70 to 72 °C. On to `COC(=O)c1ccc(C)c(NC(=O)OCC(F)(F)F)c1`, for which the melting point lay in the range of 121 to 123 °C.

Consider `O=C1CCCc2nc(-c3ccc(F)cc3)sc21`, for which the melting point is 142 to 144 °C. On to `N#CC(=Cc1ccc2c(c1)OCO2)C(=O)O`, for which the melting point lay within 205 to 207 °C. `CC(C)(C)OC(=O)Nc1cocn1` came in with a melting point of 108 to 110 °C.

On to `O=[N+]([O-])c1ccc(Cc2nnn[nH]2)cc1`, for which the melting point lay within 178 to 180 °C. Take `Nc1nc(-c2ccc3c(c2)CCC(=O)N3)cs1`: the melting point lay in the range of 248 to 250 °C. Molecule `CCOc1cc(C(=O)O)cc(Br)c1OC` yielded a melting point of 182 to 184 °C. As to `NNC(=O)COc1ccc(Br)cc1`, the melting point lay in the range of 170 to 172 °C. `O=C(O)c1cc(S(=O)(=O)Cl)cs1` gave a melting point of 139 to 141 °C. Turning to `O=C(O)c1ccc(Oc2cccc(Cl)c2)cc1`, the melting point lay within 132 to 134 °C. In turn, `COc1cc(C(=O)O)ccc1OCc1ccccn1` registered a melting point of 149 to 151 °C. `Nc1cnn(CC(=O)Nc2cccnc2)c1`: the melting point fell in the range of 117 to 119 °C. For the molecule `CNc1ccc(N)c(C(F)(F)F)c1`, the melting point lay within 86 to 88 °C.

`CC(Cl)C(=O)Nc1ccccc1Cc1ccccc1` (stereo not drawn): the melting point was 144 to 146 °C. For `CC(SC1=NS(=O)(=O)c2ccccc21)C(=O)O` (stereo not drawn) the value was 182 to 184 °C; for `Cn1c(Cl)cnc1CO`, 110 to 112 °C. Molecule `Nc1ccc(F)cc1-n1cccc1` gave a melting point of 84 to 86 °C. The molecule `COC(=O)/C=C/c1cc(OC)c(OC)c(S(=O)(=O)Cl)c1` registered a melting point of 160 to 162 °C. On to `Cn1cc(Nc2cccc(C(=O)O)c2)cn1`, for which the melting point lay in the range of 218 to 220 °C. In turn, `COc1ccc2c(-c3cccnc3)cc(S)nc2c1` gave a melting point of 269 to 271 °C.

`NC(=O)COc1cccc(O)c1`: the melting point lay within 134 to 136 °C.

In the case of `Cc1cc(C(=O)O)ccc1I`, the melting point is 218 to 220 °C.

As to `COc1cc(-c2cc(C(=O)NN)c3ccccc3n2)cc(OC)c1OC`, the melting point lay in the range of 200 to 202 °C. `NC(=O)COc1ccc(/C=C/C(=O)O)cc1` yielded a melting point of 295 to 297 °C. The figure for `NC(=O)C1CCCO1` (stereo not drawn) is 76 to 78 °C. Molecule `Nc1cc(CCc2ccco2)no1` gave a melting point of 67 to 69 °C. Molecule `O=C(O)c1csc(-c2ccoc2)n1` displayed a melting point of 166 to 168 °C. `CSc1ccccc1CC(=O)O` registered a melting point of 115 to 117 °C. As for `Cc1nc(-c2cc3c(s2)CCNC3)cs1`, the melting point fell in the range of 111 to 113 °C.

`NC(=O)c1ccc(S(N)(=O)=O)cc1`: the melting point was 243 to 245 °C. The figure for `CC(Cl)C(=O)Nc1ncc(Cl)cc1Cl` (stereo not drawn) is 113 to 115 °C; for `CCCOc1ccccc1C(N)=S` it is 100 to 102 °C; for `O=C1CSCc2c(F)cccc21` it is 59 to 61 °C.

Consider `OCCNc1ccncc1`, for which the melting point lay within 110 to 112 °C.

`O=C(O)C(Br)C12CC3CC(CC(C3)C1)C2` (stereo not drawn): the melting point fell in the range of 162 to 166 °C.

In the case of `Cn1cc(S(N)(=O)=O)c2ccccc21`, the melting point is 194 to 196 °C. `O=C(O)/C=C/c1ccc(OCc2cn3ccccc3n2)cc1`: the melting point is 190 to 192 °C. As to `Cc1oc(-c2ccc(Cl)c(Cl)c2)nc1C(=O)O`, the melting point lay in the range of 264 to 266 °C. As to `Cc1ccc(Cl)c(S(=O)(=O)Cl)c1`, the melting point was 49 to 51 °C. In turn, `CC(=O)c1ccc(S(=O)(=O)CC(F)(F)F)cc1` displayed a melting point of 102 to 104 °C.

Consider `CC(=O)CC(=O)Nc1cccnc1Cl`, for which the melting point lay within 83 to 85 °C. Take `CC(=O)c1ccc(-n2cncn2)cc1`: the melting point is 111 to 124 °C. The figure for `O=C(O)c1csc(-c2ccc3c(c2)OCCO3)n1` is 199 to 201 °C. For `CCC1CSC(Nc2ccc(Cl)c(Cl)c2)=N1` (stereo not drawn) the value was 107 to 109 °C. In turn, `NC(=NO)c1ccc(COc2ccccc2)cc1` showed a melting point of 143 to 145 °C. As to `COc1ccccc1CCNC(=O)CCl`, the melting point fell in the range of 78 to 80 °C. In the case of `NC(=O)C1CCCC1N` (stereo not drawn), the melting point lay in the range of 123 to 125 °C. `Nc1nnc(-c2ccc(Cl)cc2)o1` returned a melting point of 260 to 262 °C.

In turn, `CC(CC#N)Sc1ccccc1NC(=O)CCl` (stereo not drawn) showed a melting point of 89 to 91 °C.

`CCOC(=O)c1sc(-c2ccc(F)c(F)c2)nc1C` displayed a melting point of 81 to 83 °C. The molecule `O=C1OC(CBr)CN1c1ccccc1` (stereo not drawn) showed a melting point of 102 to 104 °C. With `CNS(=O)(=O)c1cccc(S(=O)(=O)Cl)c1`, the melting point was in the range of 98 to 100 °C. Regarding `CCC1NC(=O)NC1=O` (stereo not drawn), the melting point fell in the range of 115 to 119 °C.

In turn, `O=S(=O)(F)CCn1nnc(-c2ccccc2)n1` had a melting point of 97 to 99 °C. In the case of `Nc1sc2c(c1C(=O)N1CCOCC1)CCCC2`, the melting point is 90 to 92 °C. `COc1ccc(C(=O)CCl)cc1Br` gave a melting point of 85 to 87 °C. `COC(=O)NC(=O)CCl` displayed a melting point of 147 to 151 °C. For `CN(CC(=O)O)c1ccc(Cl)cn1` the value was 135 to 137 °C; for `Cc1ccc(-c2cnnn2-c2ccc(C(=O)O)cc2)cc1`, 236 to 238 °C. `Nc1ncn(Cc2cccc(Br)c2)n1` registered a melting point of 147 to 149 °C.

`CCn1c(S)nnc1-c1ccc(C(C)(C)C)cc1` gave a melting point of 130 to 132 °C. `Cc1[nH]c2ccccc2c1-c1csc(N)n1`: the melting point was 168 to 170 °C. The figure for `CC(=O)c1cccc(S(=O)(=O)NC(CC(N)=O)C(=O)O)c1` (stereo not drawn) is 191 to 193 °C. Molecule `O=C(O)CCCc1nc2ccccc2s1` had a melting point of 148 to 150 °C.

Take `CC(C)(C)C(=O)NCC(=O)O`: the melting point is 132 to 134 °C. `Nc1nnc(C2COc3ccccc3O2)o1` (stereo not drawn) gave a melting point of 210 to 212 °C. The molecule `Cc1ccc2[nH]cnc2c1C` registered a melting point of 169 to 171 °C. The molecule `COc1ccc(-c2noc(CCC(=O)O)n2)cc1` displayed a melting point of 141 to 143 °C.

The molecule `Cc1ccc(C(=O)Nc2cccc(C(F)(F)F)c2)cc1N` registered a melting point of 109 to 111 °C. For `CNCC1CCN(CC(O)c2ccccc2)CC1` (stereo not drawn), the melting point was 47 to 49 °C. Turning to `O=C(Cc1ccccn1)c1ccc(Cl)cc1`, the melting point was 99 to 101 °C. Regarding `NC(CCCN1CCCCC1)=NO`, the melting point lay within 89 to 91 °C. Consider `Cc1c(C(=O)O)cnn1-c1cccc(C(F)(F)F)c1`, for which the melting point lay within 122 to 124 °C. For `Cn1cc(C=O)cn1` the value was 31 to 33 °C.

`O=C(O)CC1Sc2ccc(Cl)cc2NC1=O` (stereo not drawn) gave a melting point of 240 to 242 °C. `CCC1CCC2(CC1)NC(=O)N(CC(=O)O)C2=O` (stereo not drawn) had a melting point of 214 to 216 °C. The figure for `Nc1ccc2nc(N3CCOCC3)sc2c1` is 166 to 168 °C; for `COC(=O)c1cc(F)cc(Br)c1N` it is 36 to 38 °C; for `CC(N)c1nn[nH]n1` (stereo not drawn) it is 263 to 265 °C. Molecule `Cc1sc2nc(S)[nH]c(=O)c2c1C` displayed a melting point of 328 to 330 °C. On to `CN1CCN(S(=O)(=O)c2ccc(C(=O)NN)cc2)CC1`, for which the melting point lay within 170 to 172 °C. The molecule `Nc1nc2cc(Cl)ccc2n1CCCn1ccnc1` came in with a melting point of 229 to 231 °C. For `Nc1ccc(N2CCc3ccccc32)cc1C(=O)O` the value was 189 to 191 °C.

`O=C(O)c1cccnc1Nc1cc(F)ccc1F` returned a melting point of 248 to 250 °C.

On to `CC(C)c1noc(N)n1`, for which the melting point lay in the range of 101 to 103 °C. For `CCCCn1c2c(c(=O)n(C)c1=O)C(CC(=O)O)C(=O)N2` (stereo not drawn), the melting point was in the range of 229 to 231 °C. The figure for `NCC(O)COc1cccc(F)c1` (stereo not drawn) is 84 to 86 °C. In the case of `Cc1ccc2ncnc(O)c2c1`, the melting point was 238 to 240 °C.

As to `O=C(O)CNc1ccc(Cl)cc1`, the melting point fell in the range of 142 to 144 °C. In the case of `CC(C)n1cccc1C(=O)Nc1cc(Cl)ccc1C(=O)O`, the melting point fell in the range of 226 to 228 °C. Molecule `CCNC(=O)NC(C)(C)C(=O)O` returned a melting point of 150 to 152 °C. In turn, `C=CC(=O)Nc1ccccc1OC` came in with a melting point of 68 to 70 °C. Turning to `O=C(O)CCc1cc(F)ccc1F`, the melting point lay within 71 to 73 °C. For `Cc1ccc(S(N)(=O)=O)s1` the value was 118 to 120 °C; for `O=C1CNC(=O)N1C1CC1`, 144 to 146 °C. Consider `CCOC(=O)c1ccc(C=O)o1`, for which the melting point was 35 to 37 °C. `CC(C)(C)c1noc2ncc(C(=O)O)cc12` had a melting point of 207 to 209 °C. Consider `CCOC(=O)c1cc(C#N)c(SCC(=O)O)[nH]c1=O`, for which the melting point was 195 to 197 °C.

Take `CCN(CC)S(=O)(=O)c1ccc(C)c(C(=O)O)c1`: the melting point is 140 to 142 °C.

Regarding `Nc1nsc(N2CCNCC2)n1`, the melting point was 193 to 195 °C.

Take `O=C1NC(=O)N(c2ccc3c(c2)OCO3)C1=O`: the melting point is 195 to 197 °C.

For the molecule `N=C(NN)c1cc(Cl)ccn1`, the melting point was 248 to 250 °C.
